IC50 and Ki data for 6 compounds are collected here from ChEMBL document CHEMBL1126415, “Phosphonate derivatives of N9-benzylguanine: a new class of potent purine nucleoside phosphorylase inhibitors” (Bioorg Med Chem Lett, 1992).

The target of test [1] is T1, Purine nucleoside phosphorylase (Bos taurus, UniProt P55859).
T1 sequence (P55859 whole entry): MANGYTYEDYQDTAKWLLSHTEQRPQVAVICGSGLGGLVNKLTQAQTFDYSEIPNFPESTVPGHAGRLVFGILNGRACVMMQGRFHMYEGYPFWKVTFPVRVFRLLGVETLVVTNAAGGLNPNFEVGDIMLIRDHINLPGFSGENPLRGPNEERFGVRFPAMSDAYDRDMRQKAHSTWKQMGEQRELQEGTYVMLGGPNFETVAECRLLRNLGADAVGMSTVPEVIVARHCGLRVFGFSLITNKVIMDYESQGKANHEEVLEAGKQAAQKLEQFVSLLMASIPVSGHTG
As to the kind of experiment: Inhibitory concentration against calf spleen purine nucleoside phosphorylase in the presence of 50 mM (pi) […].

For test [2], the target named is T1, Purine nucleoside phosphorylase. As to the kind of experiment: Inhibitory activity against calf spleen purine nucleoside phosphorylase in the presence of 1 mM (pi) […].
Test [3] deals with T2, Purine nucleoside phosphorylase (Homo sapiens, UniProt P00491).
T2 sequence (P00491 whole entry): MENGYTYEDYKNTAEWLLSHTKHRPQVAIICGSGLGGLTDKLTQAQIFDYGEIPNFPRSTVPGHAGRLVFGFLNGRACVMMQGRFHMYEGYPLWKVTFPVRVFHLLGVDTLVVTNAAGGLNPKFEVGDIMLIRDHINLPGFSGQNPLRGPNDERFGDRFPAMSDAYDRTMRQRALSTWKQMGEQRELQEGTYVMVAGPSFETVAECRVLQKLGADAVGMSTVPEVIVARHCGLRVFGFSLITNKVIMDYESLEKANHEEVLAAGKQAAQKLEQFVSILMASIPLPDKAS
As to the kind of experiment: Inhibitory concentration against human erythrocytic purine nucleoside phosphorylase in the presence of 50 mM (pi) […].

For test [4], the target named is T2, Purine nucleoside phosphorylase. As to the kind of experiment: Inhibitory activity against human erythrocytic purine nucleoside phosphorylase in the presence of 1 mM (pi) […].
The target is the same in test [5]. As to the kind of experiment: Tested for its inhibitory activity against human erythrocytic purine nucleoside phosphorylase.

SMILES strings stand for the structures.

What is called IC50 is the concentration that gives 50% inhibition. What is called Ki is the dissociation constant of the complex between target and ligand, obtained from inhibition or displacement. Regarding `Nc1nc(O)c2ncn(Cc3ccccc3/C=C(\F)P(=O)(O)O)c2n1`, the IC50 in test [1] came out at 60 nM. Moreover, the Ki in test [2] amounted to 0.8 nM.
As for `Nc1nc(O)c2ncn(Cc3ccccc3/C=C/P(=O)(O)O)c2n1`, the values for the IC50 in test [3] and in test [1] were 155 nM and 85 nM, respectively. For the same compound, the Ki in test [4] turned out to be 3.2 nM.
As for `Nc1nc(O)c2ncn(Cc3ccccc3CC(F)(F)P(=O)(O)O)c2n1`, the IC50 in test [1] came to 200 nM.
As for `Nc1nc(O)c2ncn(Cc3ccccc3C(F)C(F)(F)P(=O)(O)O)c2n1` (stereo not given), the IC50 worked out at 85 nM in test [3] and 100 nM in test [1].
On to `Nc1nc2c(ncn2CCCCC(F)(F)P(=O)(O)O)c(=O)[nH]1`, for which, in test [5], the affinity corresponds to a Ki of 18 nM.
Compound `Nc1nc(O)c2nc(N)n(Cc3ccccc3)c2n1` displayed a Ki in test [5] of 200 nM.
